# Measured values as given in patent US12263349B2, “Method of treatment of biological surfaces” (Koite Health Oy, priority 2018, dated 2025).
# Entries after “also recorded” stand apart in the source; their conditions may differ.
# Legend:
# [1] = system: Streptococcus mutans biofilm; test: Streptococcus mutans monospecies biofilm model, PDT with indocyanine green, viability by serial dilution CFU; format: cell-based, Streptococcus mutans (ATCC 25175)
# Experimental: In a third series of test, the adaptability of Streptococcus mutans biofilms to multi and single wavelength PDT treatments, respectively, was compared.
# Two separate monospecies biofilm model experiments were performed to study the effect of reoccurring photodynamic therapy on biofilm formation. The Streptococcus mutans biofilm experiments were divided in different classes based on biofilm age and the therapy given.
# The one-time PDT treatment was performed for 1 day, 2 days and 4 days old biofilms. […] The viability of the bacteria was assessed by serial dilution CFU method which was performed after the last photodynamic therapy treatment.
# Streptococcus mutans (ATCC 25175) bacteria was grown over 18 h in growth chamber (36° C., 5% CO2) in BHI-broth (Bio-Rad 3564014). The resulting bacteria suspension was diluted with 0.9% NaCl suspension to optical density of 0.46.
# Biofilm was grown on bottom of well plate by adding 100 μl diluted Streptococcus mutans suspension in each well with 100 μl of BHI-broth growth medium. The bacteria plate was incubated in growth chamber (36 Celsius, 5% CO2) and BHI-broth medium changed daily.
# Before the light exposure, the growth medium was replaced with indocyanine green suspension which was let to incubate in dark in room temperature for 10 minutes. After the incubation the biofilm was washed twice with 0.9% NaCl solution. The treatment time was calculated from desired light amount and known intensity.
# The light exposure was performed by placing the well plate under known LED light source. The given light intensity was analyzed with Thorlabs PM100D and S121C sensor head. Treatment time was changed to result in desired light amount. […]
# The first experiment of continuous treatment of Streptococcus biofilm with PDT was completed by using 250 μg/ml ICG with 810 nm light. Different age biofilms of 1 day, 2 days and 4 days were grown, and the treatment was given once to each biofilm to evaluated the effect of single time treatment to differently aged biofilms. […]
# Streptococcus mutans = test: Bacteria plate study: antibacterial effect of 405 nm light compared to PDT; format: cell-based; settings: FIG. 6
# [2] = system: Streptococcus mutans biofilm; test: Potentiation of chlorhexidine with dual wavelength PDT; format: cell-based; settings: high and low energy photons with photosensitizer; FIG. 3
# From the text: Treatment can be combined with topic use of antibiotics and disinfectants for synergist antipathogen effect. For example, the use phototherapy with chlorhexidine to target biofilms is new to oral disinfection. The results of dual wavelength photodynamic therapy with chlorhexidine against Streptococcus mutans biofilm shown in appendix III are completely new. […] The effectivity is based on photon and anionic photosensitizer ability to penetrate deeper into biofilm and provide efficient bacteria killing inside the biofilm as well as on the surface. The chlorhexidine effect is mostly present only on the surface of the biofilm. High energy photons reduce the biofilm EPS matrix formation that further increases the chlorhexidine effectivity in subsequent treatments. In a second series of tests, potentiation of chlorhexidine with dual wavelength PDT was evaluated.
# [3] = system: monospecies biofilm of Streptococcus sobrinus; settings: biofilm versus planktonic form; cited from earlier work
compound,measurement,setting,value
"CC1(C)C(/C=C/C=C/C=C/C=C2\N(CCCCS(=O)(=O)O)c3ccc4ccccc4c3C2(C)C)=[N+](CCCCS(=O)(=O)[O-])c2ccc3ccccc3c21 [ICG, Indocyanine green]","effect of PDT treatment on biofilm (CFU), every day treated","[1]; 250 μg/ml ICG with 810 nm light (single wavelength), 4 days old biofilm treated every day",poor treatment effect; also recorded: failed to achieve strong bacteria killing
same,"effect of PDT treatment on biofilm (CFU), treatment given once","[1]; 250 μg/ml ICG with 810 nm light, single treatment of 1 day, 2 days and 4 days old biofilms",strong effect of PDT treatment
same,"bacteria killing with double wavelength PDT, every day therapy versus day 4 only","[1]; ICG, 810 nm combined with 405 nm light, 4 days old biofilm",No significant difference of bacteria killing; also recorded: no bacteria biofilm adaptation to the treatment was observed
same,light dose resulting in complete inhibition of Streptococcus mutans growth,Streptococcus mutans,4 J/cm^2
[H]/N=C(\N/C(=N/[H])NCCCCCCNC(=N)NC(=N)Nc1ccc(Cl)cc1)Nc1ccc(Cl)cc1 [chlorhexidine],antimicrobial effect of chlorhexidine combined with multi wavelength PDT versus reference and one wavelength,[2],increased substantially the antibacterial effect; also recorded: much stronger effect
same,times greater concentration needed to kill biofilm than planktonic counterpart,[3],100
amine fluoride,times greater concentration needed to kill biofilm than planktonic counterpart,[3],100
